{"source": "paper PMC9889419", "about": "(Pharmacological Reports, 2022)", "assay_in_all_cases": "Radioligand binding", "key": {"dopamine transporter": {"target": "dopamine transporter (Homo sapiens, UniProt Q01959)", "sequence (Q01959 whole entry)": "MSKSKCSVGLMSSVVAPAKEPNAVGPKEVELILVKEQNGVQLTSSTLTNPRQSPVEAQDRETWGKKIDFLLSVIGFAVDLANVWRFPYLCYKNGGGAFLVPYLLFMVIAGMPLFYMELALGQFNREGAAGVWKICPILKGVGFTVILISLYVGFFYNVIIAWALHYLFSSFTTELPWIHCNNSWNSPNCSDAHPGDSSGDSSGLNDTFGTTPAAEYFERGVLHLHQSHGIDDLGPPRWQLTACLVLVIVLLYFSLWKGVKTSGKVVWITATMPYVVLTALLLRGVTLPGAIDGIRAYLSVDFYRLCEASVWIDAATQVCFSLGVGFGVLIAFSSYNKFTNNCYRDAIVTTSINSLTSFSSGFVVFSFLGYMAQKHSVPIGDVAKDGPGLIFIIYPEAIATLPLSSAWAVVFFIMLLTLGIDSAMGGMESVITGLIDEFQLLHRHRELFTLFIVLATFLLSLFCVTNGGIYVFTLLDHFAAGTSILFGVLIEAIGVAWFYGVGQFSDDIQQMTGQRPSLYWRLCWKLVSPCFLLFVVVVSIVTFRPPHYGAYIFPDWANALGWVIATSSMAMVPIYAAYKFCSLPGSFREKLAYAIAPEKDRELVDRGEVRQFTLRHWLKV", "description": "(§1) Radioligand binding. Radioligand binding assays were performed at Eurofins CEREP (France). The results are expressed as a percent of control specific binding (measured specific binding*100/control specific binding) and as a percent inhibition of control specific binding (100-(measured specific binding*100)/control specific binding) obtained in the presence of the test compounds. The IC50 values (concentration causing a half-maximal inhibition of control specific binding) and Hill coefficients (nH) were determined by non-linear regression analysis of the competition curves generated with mean replicate values using Hill equation curve fitting (Y = D + [A-D]/[1 + (C/C50)^nH], where Y = specific binding, A = left asymptote of the curve, D = right asymptote of the curve, C = compound concentration, C50 = IC50, and nH = slope factor). This analysis was performed using software developed at Cerep (Hill software) and validated by comparison with data generated by the commercial software SigmaPlot® 4.0 for Windows® (© 1997 by SPSS Inc.). The inhibition constants (Ki) were calculated using the Cheng Prusoff equation (Ki = IC50/[1 + L/KD], where L = concentration of radioligand in the assay, and KD = affinity of the radioligand for the receptor). A scatchard plot is used to determine the Kd."}, "5-HT1A": {"target": "T1, 5-HT1A (Homo sapiens, UniProt P08908)", "T1 sequence (P08908 1-422)": "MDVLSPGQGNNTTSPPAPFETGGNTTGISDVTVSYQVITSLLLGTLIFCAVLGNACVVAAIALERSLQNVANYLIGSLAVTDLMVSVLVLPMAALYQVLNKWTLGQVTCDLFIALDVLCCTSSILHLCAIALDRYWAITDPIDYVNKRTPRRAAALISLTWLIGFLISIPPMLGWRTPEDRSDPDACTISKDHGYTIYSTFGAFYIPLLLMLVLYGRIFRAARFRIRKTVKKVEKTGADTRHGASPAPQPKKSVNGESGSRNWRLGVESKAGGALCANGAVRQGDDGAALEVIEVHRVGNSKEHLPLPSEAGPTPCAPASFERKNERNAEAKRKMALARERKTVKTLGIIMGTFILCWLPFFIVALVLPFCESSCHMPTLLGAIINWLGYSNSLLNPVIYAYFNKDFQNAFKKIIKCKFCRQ", "description": "as §1"}, "5-HT2B": {"target": "5-HT2B (Homo sapiens, UniProt P41595)", "sequence (P41595 whole entry)": "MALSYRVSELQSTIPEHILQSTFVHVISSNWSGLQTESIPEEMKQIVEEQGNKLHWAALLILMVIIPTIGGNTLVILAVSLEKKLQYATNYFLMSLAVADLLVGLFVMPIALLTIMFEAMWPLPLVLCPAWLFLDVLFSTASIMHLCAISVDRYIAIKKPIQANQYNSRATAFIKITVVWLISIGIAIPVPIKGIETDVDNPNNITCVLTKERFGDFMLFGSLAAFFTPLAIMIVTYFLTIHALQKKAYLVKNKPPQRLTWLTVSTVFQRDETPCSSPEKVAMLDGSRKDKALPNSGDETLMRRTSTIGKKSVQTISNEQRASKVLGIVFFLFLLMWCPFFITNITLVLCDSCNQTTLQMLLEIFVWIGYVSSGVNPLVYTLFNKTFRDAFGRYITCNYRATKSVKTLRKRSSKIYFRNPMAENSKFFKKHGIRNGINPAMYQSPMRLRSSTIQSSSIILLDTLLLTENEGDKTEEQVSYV", "description": "as §1"}, "M5": {"target": "T2, M5 (Homo sapiens, UniProt P08912)", "T2 sequence (P08912 1-532)": "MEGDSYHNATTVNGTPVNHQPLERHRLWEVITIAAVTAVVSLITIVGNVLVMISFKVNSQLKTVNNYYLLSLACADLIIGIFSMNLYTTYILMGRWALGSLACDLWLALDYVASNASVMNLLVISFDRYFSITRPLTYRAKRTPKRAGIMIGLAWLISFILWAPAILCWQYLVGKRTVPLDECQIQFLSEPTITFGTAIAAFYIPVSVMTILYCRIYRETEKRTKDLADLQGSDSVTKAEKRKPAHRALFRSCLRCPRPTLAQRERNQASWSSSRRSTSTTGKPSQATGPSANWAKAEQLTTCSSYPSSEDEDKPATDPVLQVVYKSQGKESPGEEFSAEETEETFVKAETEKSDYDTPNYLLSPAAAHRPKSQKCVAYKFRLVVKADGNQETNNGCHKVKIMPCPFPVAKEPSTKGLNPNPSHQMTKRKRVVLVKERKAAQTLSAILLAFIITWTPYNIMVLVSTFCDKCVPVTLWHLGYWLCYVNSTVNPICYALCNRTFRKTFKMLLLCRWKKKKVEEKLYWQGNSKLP", "description": "as §1"}, "D2S": {"target": "D2S (Homo sapiens, UniProt P14416)", "sequence (P14416 1-414 isoform P14416-2)": "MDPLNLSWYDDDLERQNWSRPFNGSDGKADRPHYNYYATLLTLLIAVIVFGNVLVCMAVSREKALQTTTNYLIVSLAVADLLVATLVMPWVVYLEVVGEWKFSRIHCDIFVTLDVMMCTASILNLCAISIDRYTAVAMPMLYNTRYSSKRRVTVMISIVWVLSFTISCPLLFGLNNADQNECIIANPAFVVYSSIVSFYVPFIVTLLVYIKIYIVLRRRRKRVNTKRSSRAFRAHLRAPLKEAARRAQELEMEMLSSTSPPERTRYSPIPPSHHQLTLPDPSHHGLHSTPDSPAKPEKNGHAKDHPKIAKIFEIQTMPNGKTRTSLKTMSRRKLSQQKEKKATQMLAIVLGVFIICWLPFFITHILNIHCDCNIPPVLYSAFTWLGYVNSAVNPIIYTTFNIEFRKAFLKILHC", "description": "as §1"}, "M1": {"target": "T3, M1 (Homo sapiens, UniProt P11229)", "T3 sequence (P11229 1-460)": "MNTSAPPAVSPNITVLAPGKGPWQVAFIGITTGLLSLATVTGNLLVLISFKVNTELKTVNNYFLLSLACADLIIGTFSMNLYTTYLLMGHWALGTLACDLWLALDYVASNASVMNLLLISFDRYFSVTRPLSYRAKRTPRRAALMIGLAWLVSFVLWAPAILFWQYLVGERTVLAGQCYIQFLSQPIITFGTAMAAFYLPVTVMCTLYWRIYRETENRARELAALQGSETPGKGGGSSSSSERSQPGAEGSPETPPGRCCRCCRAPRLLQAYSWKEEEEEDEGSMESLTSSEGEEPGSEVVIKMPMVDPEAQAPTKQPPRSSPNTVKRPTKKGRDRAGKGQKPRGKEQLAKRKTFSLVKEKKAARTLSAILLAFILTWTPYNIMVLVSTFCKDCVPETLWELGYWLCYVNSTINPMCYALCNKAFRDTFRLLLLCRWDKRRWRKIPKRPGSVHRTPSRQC", "description": "as §1"}, "5-HT2C": {"target": "T4, 5-HT2C (Homo sapiens, UniProt P28335)", "T4 sequence (P28335 33-458)": "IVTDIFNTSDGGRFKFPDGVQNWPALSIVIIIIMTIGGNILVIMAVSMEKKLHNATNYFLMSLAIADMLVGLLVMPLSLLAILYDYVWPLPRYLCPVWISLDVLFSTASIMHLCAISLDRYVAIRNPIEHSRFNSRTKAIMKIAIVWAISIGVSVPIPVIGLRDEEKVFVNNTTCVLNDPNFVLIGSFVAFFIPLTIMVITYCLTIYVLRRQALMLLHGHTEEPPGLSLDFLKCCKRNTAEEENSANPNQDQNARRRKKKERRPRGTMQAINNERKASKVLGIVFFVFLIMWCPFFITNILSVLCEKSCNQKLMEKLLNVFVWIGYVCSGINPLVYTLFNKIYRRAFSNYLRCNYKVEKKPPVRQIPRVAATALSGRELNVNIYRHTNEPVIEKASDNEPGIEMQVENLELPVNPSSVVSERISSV", "description": "as §1"}, "5-HT7": {"target": "5-HT7 (Homo sapiens, UniProt P34969)", "sequence (P34969 whole entry)": "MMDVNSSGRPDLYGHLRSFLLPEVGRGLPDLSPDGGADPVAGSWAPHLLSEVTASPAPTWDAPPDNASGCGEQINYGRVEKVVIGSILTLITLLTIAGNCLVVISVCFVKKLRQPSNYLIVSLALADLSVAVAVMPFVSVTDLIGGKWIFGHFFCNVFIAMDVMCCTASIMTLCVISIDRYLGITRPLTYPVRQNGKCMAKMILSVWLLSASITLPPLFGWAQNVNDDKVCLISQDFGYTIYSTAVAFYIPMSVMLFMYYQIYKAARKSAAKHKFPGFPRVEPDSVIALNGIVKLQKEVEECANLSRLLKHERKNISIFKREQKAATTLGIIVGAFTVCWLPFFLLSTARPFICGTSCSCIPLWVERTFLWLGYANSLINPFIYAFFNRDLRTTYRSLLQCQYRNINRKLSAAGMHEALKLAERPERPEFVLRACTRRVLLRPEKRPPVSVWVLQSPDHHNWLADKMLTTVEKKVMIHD", "description": "as §1"}, "[1]": {"details": "0.1 μM, read-out: % of control specific binding"}, "[2]": {"details": "1 μM, read-out: % of control specific binding"}, "[3]": {"details": "3 μM, read-out: % of control specific binding"}, "[4]": {"details": "10 μM, read-out: % of control specific binding"}, "[5]": {"details": "100 μM, read-out: % of control specific binding"}, "[6]": {"details": "0.001 μM, read-out: % of control specific binding"}, "[7]": {"details": "0.01 μM, read-out: % of control specific binding"}}, "note": "Structures can show the parent of a compound that is named as a salt."}
{"molecule": "CCC(CO)NCCOc1c(C)cccc1Cl", "note": "(stereo not shown) [Compound 4, R,S-2-((2-(2-chloro-6-methylphenoxy)ethyl)amino)butan-1-ol]", "values": [{"measurement": "% of control specific binding", "setting": "dopamine transporter; 100 μM", "value": 29.6, "unit": "%"}, {"measurement": "% of control specific binding", "setting": "5-HT1A; 100 μM", "value": 2.1, "unit": "%"}, {"measurement": "% of control specific binding", "setting": "5-HT2B; 100 μM", "value": 2.3, "unit": "%"}, {"measurement": "% of control specific binding", "setting": "M5; 100 μM", "value": 21.5, "unit": "%"}, {"measurement": "% of control specific binding", "setting": "D2S; 100 μM", "value": 33.3, "unit": "%"}, {"measurement": "% of control specific binding", "setting": "M1; 100 μM", "value": 46.7, "unit": "%"}, {"measurement": "% of control specific binding", "setting": "5-HT2C; 100 μM", "value": 44.6, "unit": "%"}, {"measurement": "% of control specific binding", "setting": "5-HT7; 100 μM", "value": 26.4, "unit": "%"}]}
{"molecule": "CCC(CO)NCCOc1c(C)cccc1Cl", "note": "(stereo not shown) [KM-408, R,S-2-((2-(2-chloro-6-methylphenoxy)ethyl)amino)butan-1-ol hydrochloride]", "values": [{"measurement": "IC50", "setting": "dopamine transporter", "value": 43, "unit": "µM"}, {"measurement": "Ki", "setting": "dopamine transporter", "value": 23, "unit": "µM"}, {"measurement": "remaining activity at 0.1 µM", "setting": "dopamine transporter; [1]", "value": 93.9, "unit": "%"}, {"measurement": "remaining activity at 1 µM", "setting": "dopamine transporter; [2]", "value": 87.8, "unit": "%"}, {"measurement": "remaining activity at 3 µM", "setting": "dopamine transporter; [3]", "value": 94.4, "unit": "%"}, {"measurement": "remaining activity at 10 µM", "setting": "dopamine transporter; [4]", "value": 72.6, "unit": "%"}, {"measurement": "remaining activity at 100 µM", "setting": "dopamine transporter; [5]", "value": 29.6, "unit": "%"}, {"measurement": "IC50", "setting": "5-HT1A", "value": 1.3, "unit": "µM"}, {"measurement": "Ki", "setting": "5-HT1A", "value": 0.8, "unit": "µM"}, {"measurement": "remaining activity at 0.001 µM", "setting": "5-HT1A; [6]", "value": 100, "unit": "%"}, {"measurement": "remaining activity at 0.01 µM", "setting": "5-HT1A; [7]", "value": 95.9, "unit": "%"}, {"measurement": "remaining activity at 0.1 µM", "setting": "5-HT1A; [1]", "value": 88.6, "unit": "%"}, {"measurement": "remaining activity at 1 µM", "setting": "5-HT1A; [2]", "value": 55.6, "unit": "%"}, {"measurement": "remaining activity at 10 µM", "setting": "5-HT1A; [4]", "value": 12.5, "unit": "%"}, {"measurement": "IC50", "setting": "5-HT2B", "value": 2.4, "unit": "µM"}, {"measurement": "Ki", "setting": "5-HT2B", "value": 1.2, "unit": "µM"}, {"measurement": "remaining activity at 0.001 µM", "setting": "5-HT2B; [6]", "value": 130, "unit": "%"}, {"measurement": "remaining activity at 0.01 µM", "setting": "5-HT2B; [7]", "value": 121, "unit": "%"}, {"measurement": "remaining activity at 0.1 µM", "setting": "5-HT2B; [1]", "value": 103, "unit": "%"}, {"measurement": "remaining activity at 1 µM", "setting": "5-HT2B; [2]", "value": 88, "unit": "%"}, {"measurement": "remaining activity at 10 µM", "setting": "5-HT2B; [4]", "value": 28.3, "unit": "%"}, {"measurement": "IC50", "setting": "M5", "value": 35, "unit": "µM"}, {"measurement": "Ki", "setting": "M5", "value": 18, "unit": "µM"}, {"measurement": "remaining activity at 0.01 µM", "setting": "M5; [7]", "value": 104, "unit": "%"}, {"measurement": "remaining activity at 0.1 µM", "setting": "M5; [1]", "value": 92.6, "unit": "%"}, {"measurement": "remaining activity at 1 µM", "setting": "M5; [2]", "value": 96.8, "unit": "%"}, {"measurement": "remaining activity at 10 µM", "setting": "M5; [4]", "value": 76.6, "unit": "%"}, {"measurement": "remaining activity at 100 µM", "setting": "M5; [5]", "value": 26, "unit": "%"}, {"measurement": "IC50", "setting": "D2S", "value": 100, "unit": "µM"}, {"measurement": "Ki", "setting": "D2S", "value": 34, "unit": "µM"}, {"measurement": "remaining activity at 0.1 µM", "setting": "D2S; [1]", "value": 96.2, "unit": "%"}, {"measurement": "remaining activity at 1 µM", "setting": "D2S; [2]", "value": 96.5, "unit": "%"}, {"measurement": "remaining activity at 3 µM", "setting": "D2S; [3]", "value": 92.8, "unit": "%"}, {"measurement": "remaining activity at 10 µM", "setting": "D2S; [4]", "value": 86, "unit": "%"}, {"measurement": "remaining activity at 100 µM", "setting": "D2S; [5]", "value": 49.1, "unit": "%"}, {"measurement": "IC50", "setting": "M1", "value": 64, "unit": "µM"}, {"measurement": "Ki", "setting": "M1", "value": 55, "unit": "µM"}, {"measurement": "remaining activity at 0.1 µM", "setting": "M1; [1]", "value": 114, "unit": "%"}, {"measurement": "remaining activity at 1 µM", "setting": "M1; [2]", "value": 108, "unit": "%"}, {"measurement": "remaining activity at 3 µM", "setting": "M1; [3]", "value": 123, "unit": "%"}, {"measurement": "remaining activity at 10 µM", "setting": "M1; [4]", "value": 99.7, "unit": "%"}, {"measurement": "remaining activity at 100 µM", "setting": "M1; [5]", "value": 43.1, "unit": "%"}, {"measurement": "IC50", "setting": "5-HT2C", "value": 77, "unit": "µM"}, {"measurement": "Ki", "setting": "5-HT2C", "value": 26, "unit": "µM"}, {"measurement": "remaining activity at 0.1 µM", "setting": "5-HT2C; [1]", "value": 95.6, "unit": "%"}, {"measurement": "remaining activity at 1 µM", "setting": "5-HT2C; [2]", "value": 87.1, "unit": "%"}, {"measurement": "remaining activity at 3 µM", "setting": "5-HT2C; [3]", "value": 95.2, "unit": "%"}, {"measurement": "remaining activity at 10 µM", "setting": "5-HT2C; [4]", "value": 82.4, "unit": "%"}, {"measurement": "remaining activity at 100 µM", "setting": "5-HT2C; [5]", "value": 40.6, "unit": "%"}, {"measurement": "IC50", "setting": "5-HT7", "value": 18, "unit": "µM"}, {"measurement": "Ki", "setting": "5-HT7", "value": 6.5, "unit": "µM"}, {"measurement": "remaining activity at 0.01 µM", "setting": "5-HT7; [7]", "value": 107, "unit": "%"}, {"measurement": "remaining activity at 0.1 µM", "setting": "5-HT7; [1]", "value": 106, "unit": "%"}, {"measurement": "remaining activity at 1 µM", "setting": "5-HT7; [2]", "value": 105, "unit": "%"}, {"measurement": "remaining activity at 10 µM", "setting": "5-HT7; [4]", "value": 66.1, "unit": "%"}, {"measurement": "remaining activity at 100 µM", "setting": "5-HT7; [5]", "value": 20.2, "unit": "%"}]}
